Tested on: Crude diglycosidase
Experiment: Examination of temperature in the conversion into isoflavone aglycons by diglycosidase using soybean materials
Format: biochemical, Penicillium multicolor IAM7153
Set-up: Decomposition efficiency of glycitin family in roasted soy flour / Decomposition efficiency of daidzin family in roasted soy flour / Decomposition efficiency of genistin family in soymilk / Decomposition efficiency of daidzin family in soymilk / Decomposition efficiency of glycitin family in defatted soybean / Decomposition efficiency of daidzin family in defatted soybean: concentration or dose not given beside the values
Conditions: for maximum isolation of aglycons: reaction at 55° C. for 6 hours
Method in brief: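 Temperature series (30-80° C.) of crude diglycosidase, diluted to 1.88 AU/mL in 20 mM acetate pH 4.0, acting on roasted soy flour, soymilk, defatted soybean or soy protein concentrate. Samples quenched with ethanol after 0-6 h, centrifuged, filtered and analyzed by HPLC for glycosides versus aglycons.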

[1] = 30 °C, heat treatment of enzyme: no, 0 h
[2] = 30 °C, heat treatment of enzyme: no, 1 h
[3] = 30 °C, heat treatment of enzyme: no, 3 h
[4] = 30 °C, heat treatment of enzyme: no, 6 h
[5] = 30 °C, heat treatment of enzyme: yes, 6 h
[6] = 45 °C, heat treatment of enzyme: no, 0 h
[7] = 45 °C, heat treatment of enzyme: no, 1 h
[8] = 45 °C, heat treatment of enzyme: no, 3 h
[9] = 45 °C, heat treatment of enzyme: no, 6 h
[10] = 45 °C, heat treatment of enzyme: yes, 6 h
[11] = 55 °C, heat treatment of enzyme: no, 0 h
[12] = 55 °C, heat treatment of enzyme: no, 1 h
[13] = 55 °C, heat treatment of enzyme: no, 3 h
[14] = 55 °C, heat treatment of enzyme: no, 6 h
[15] = 55 °C, heat treatment of enzyme: yes, 6 h
[16] = 65 °C, heat treatment of enzyme: no, 0 h
[17] = 65 °C, heat treatment of enzyme: no, 1 h
[18] = 65 °C, heat treatment of enzyme: no, 3 h
[19] = 65 °C, heat treatment of enzyme: no, 6 h
[20] = 65 °C, heat treatment of enzyme: yes, 6 h
[21] = 80 °C, heat treatment of enzyme: no, 0 h
[22] = 80 °C, heat treatment of enzyme: no, 1 h
[23] = 80 °C, heat treatment of enzyme: no, 3 h
[24] = 80 °C, heat treatment of enzyme: no, 6 h
[25] = 80 °C, heat treatment of enzyme: yes, 6 h

Decomposition efficiency of glycitin family in defatted soybean (30° C., heat treatment of enzyme no, reaction time 0 h): 38.7% | Decomposition efficiency of glycitin family in defatted soybean (30° C., heat treatment of enzyme no, reaction time 1 h): 51.7% | Decomposition efficiency of glycitin family in defatted soybean (30° C., heat treatment of enzyme no, reaction time 3 h): 55.4% | Decomposition efficiency of glycitin family in defatted soybean (30° C., heat treatment of enzyme no, reaction time 6 h): 54.4% | Decomposition efficiency of glycitin family in defatted soybean (30° C., heat treatment of enzyme yes, reaction time 6 h): 54.9% | Decomposition efficiency of glycitin family in concentrated soybean protein [1]: 11.4% | Decomposition efficiency of glycitin family in roasted soy flour [1]: 10.4% | Decomposition efficiency of glycitin family in soymilk [1]: 8.1% | Decomposition efficiency of glycitin family in concentrated soybean protein [2]: 17.5% | Decomposition efficiency of glycitin family in roasted soy flour [2]: 31.5% | Decomposition efficiency of glycitin family in soymilk [2]: 49.0% | Decomposition efficiency of glycitin family in concentrated soybean protein [3]: 26.9% | Decomposition efficiency of glycitin family in roasted soy flour [3]: 66.8% | Decomposition efficiency of glycitin family in soymilk [3]: 60.4% | Decomposition efficiency of glycitin family in concentrated soybean protein [4]: 40.3% | Decomposition efficiency of glycitin family in roasted soy flour [4]: 80.9% | Decomposition efficiency of glycitin family in soymilk [4]: 71.6% | Decomposition efficiency of glycitin family in concentrated soybean protein [5]: 11.3% | Decomposition efficiency of glycitin family in roasted soy flour [5]: 11.1% | Decomposition efficiency of glycitin family in soymilk [5]: 7.9% | Decomposition efficiency of glycitin family in defatted soybean (45° C., heat treatment of enzyme no, reaction time 0 h): 34.8% | Decomposition efficiency of glycitin family in defatted soybean (45° C., heat treatment of enzyme no, reaction time 1 h): 55.7% | Decomposition efficiency of glycitin family in defatted soybean (45° C., heat treatment of enzyme no, reaction time 3 h): 55.2% | Decomposition efficiency of glycitin family in defatted soybean (45° C., heat treatment of enzyme no, reaction time 6 h): 59.0% | Decomposition efficiency of glycitin family in defatted soybean (45° C., heat treatment of enzyme yes, reaction time 6 h): 55.8% | Decomposition efficiency of glycitin family in concentrated soybean protein [6]: 11.4% | Decomposition efficiency of glycitin family in roasted soy flour [6]: 10.4% | Decomposition efficiency of glycitin family in soymilk [6]: 8.2% | Decomposition efficiency of glycitin family in concentrated soybean protein [7]: 35.2% | Decomposition efficiency of glycitin family in roasted soy flour [7]: 60.2% | Decomposition efficiency of glycitin family in soymilk [7]: 53.8% | Decomposition efficiency of glycitin family in concentrated soybean protein [8]: 49.6% | Decomposition efficiency of glycitin family in roasted soy flour [8]: 67.4% | Decomposition efficiency of glycitin family in soymilk [8]: 70.1% | Decomposition efficiency of glycitin family in concentrated soybean protein [9]: 64.9% | Decomposition efficiency of glycitin family in roasted soy flour [9]: 85.0% | Decomposition efficiency of glycitin family in soymilk [9]: 84.7% | Decomposition efficiency of glycitin family in concentrated soybean protein [10]: 11.3% | Decomposition efficiency of glycitin family in roasted soy flour [10]: 13.4% | Decomposition efficiency of glycitin family in soymilk [10]: 7.4% | Decomposition efficiency of glycitin family in defatted soybean (55° C., heat treatment of enzyme no, reaction time 0 h): 38.7% | Decomposition efficiency of glycitin family in defatted soybean (55° C., heat treatment of enzyme no, reaction time 1 h): 55.2% | Decomposition efficiency of glycitin family in defatted soybean (55° C., heat treatment of enzyme no, reaction time 3 h): 57.4% | Decomposition efficiency of glycitin family in defatted soybean (55° C., heat treatment of enzyme no, reaction time 6 h): 57.3% | Decomposition efficiency of glycitin family in defatted soybean (55° C., heat treatment of enzyme yes, reaction time 6 h): 54.5% | Decomposition efficiency of glycitin family in concentrated soybean protein [11]: 11.2% | Decomposition efficiency of glycitin family in roasted soy flour [11]: 10.4% | Decomposition efficiency of glycitin family in soymilk [11]: 7.6% | Decomposition efficiency of glycitin family in concentrated soybean protein [12]: 51.4% | Decomposition efficiency of glycitin family in roasted soy flour [12]: 69.9% | Decomposition efficiency of glycitin family in soymilk [12]: 60.9% | Decomposition efficiency of glycitin family in concentrated soybean protein [13]: 69.7% | Decomposition efficiency of glycitin family in roasted soy flour [13]: 87.9% | Decomposition efficiency of glycitin family in soymilk [13]: 72.3% | Decomposition efficiency of glycitin family in concentrated soybean protein [14]: 72.7% | Decomposition efficiency of glycitin family in roasted soy flour [14]: 94.0% | Decomposition efficiency of glycitin family in soymilk [14]: 83.5% | Decomposition efficiency of glycitin family in concentrated soybean protein [15]: 11.3% | Decomposition efficiency of glycitin family in roasted soy flour [15]: 11.0% | Decomposition efficiency of glycitin family in soymilk [15]: 6.7% | Decomposition efficiency of glycitin family in defatted soybean (65° C., heat treatment of enzyme no, reaction time 0 h): 34.8% | Decomposition efficiency of glycitin family in defatted soybean (65° C., heat treatment of enzyme no, reaction time 1 h): 54.7% | Decomposition efficiency of glycitin family in defatted soybean (65° C., heat treatment of enzyme no, reaction time 3 h): 57.9% | Decomposition efficiency of glycitin family in defatted soybean (65° C., heat treatment of enzyme no, reaction time 6 h): 60.0% | Decomposition efficiency of glycitin family in defatted soybean (65° C., heat treatment of enzyme yes, reaction time 6 h): 51.2% | Decomposition efficiency of glycitin family in concentrated soybean protein [16]: 11.4% | Decomposition efficiency of glycitin family in roasted soy flour [16]: 10.4% | Decomposition efficiency of glycitin family in soymilk [16]: 8.1% | Decomposition efficiency of glycitin family in concentrated soybean protein [17]: 58.6% | Decomposition efficiency of glycitin family in roasted soy flour [17]: 65.5% | Decomposition efficiency of glycitin family in soymilk [17]: 57.6% | Decomposition efficiency of glycitin family in concentrated soybean protein [18]: 64.0% | Decomposition efficiency of glycitin family in roasted soy flour [18]: 69.0% | Decomposition efficiency of glycitin family in soymilk [18]: 65.7% | Decomposition efficiency of glycitin family in concentrated soybean protein [19]: 63.8% | Decomposition efficiency of glycitin family in roasted soy flour [19]: 71.0% | Decomposition efficiency of glycitin family in soymilk [19]: 74.5% | Decomposition efficiency of glycitin family in concentrated soybean protein [20]: 11.4% | Decomposition efficiency of glycitin family in roasted soy flour [20]: 10.4% | Decomposition efficiency of glycitin family in soymilk [20]: 7.2% | Decomposition efficiency of glycitin family in defatted soybean (80° C., heat treatment of enzyme no, reaction time 0 h): 34.8% | Decomposition efficiency of glycitin family in defatted soybean (80° C., heat treatment of enzyme no, reaction time 1 h): 53.9% | Decomposition efficiency of glycitin family in defatted soybean (80° C., heat treatment of enzyme no, reaction time 3 h): 55.0% | Decomposition efficiency of glycitin family in defatted soybean (80° C., heat treatment of enzyme no, reaction time 6 h): 59.7% | Decomposition efficiency of glycitin family in defatted soybean (80° C., heat treatment of enzyme yes, reaction time 6 h): 51.9% | Decomposition efficiency of glycitin family in concentrated soybean protein [21]: 11.4% | Decomposition efficiency of glycitin family in roasted soy flour [21]: 10.4% | Decomposition efficiency of glycitin family in soymilk [21]: 8.2% | Decomposition efficiency of glycitin family in concentrated soybean protein [22]: 23.8% | Decomposition efficiency of glycitin family in roasted soy flour [22]: 40.8% | Decomposition efficiency of glycitin family in soymilk [22]: 45.7% | Decomposition efficiency of glycitin family in concentrated soybean protein [23]: 23.4% | Decomposition efficiency of glycitin family in roasted soy flour [23]: 41.1% | Decomposition efficiency of glycitin family in soymilk [23]: 44.9% | Decomposition efficiency of glycitin family in concentrated soybean protein [24]: 22.8% | Decomposition efficiency of glycitin family in roasted soy flour [24]: 30.7% | Decomposition efficiency of glycitin family in soymilk [24]: 34.4% | Decomposition efficiency of glycitin family in concentrated soybean protein [25]: 11.4% | Decomposition efficiency of glycitin family in roasted soy flour [25]: 9.9% | Decomposition efficiency of glycitin family in soymilk [25]: 9.3% | maximum isolation of aglycons (concentrated soybean protein): about 73% | maximum isolation of aglycons (defatted soybean): about 57% | maximum isolation of aglycons (soy flour): about 94% | maximum isolation of aglycons (soymilk): about 84%
Structure (SMILES): COc1cc2c(=O)c(-c3ccc(O)cc3)coc2cc1O [glycitein]

Reference: US7118895B2, “Process for producing aglycon by using diglycosidase and flavor-improved food containing the aglycon and converting agent to be used in the process” (Amano Enzyme Inc., priority 2000, dated 2006)
